Patent publication US10774071B2, “PD-1/PD-L1 inhibitors” (Gilead Sciences, Inc., priority 2018, dated 2020)

Tests used:
PD-1/PD-L1 = PD-1/PD-L1 (Homo sapiens (Human), UniProt Q9NZQ7); test: PD-1/PD-L1 biochemical protein-protein interaction assay (ALPHA); assay type: binding; conditions: 0.3 nM His tagged PD-L1, 2.5 nM biotinylated Fc-PD-1, Table 3B, read-out: IC50 PD-L1-PD1
PD-L1 = PD-L1 (Homo sapiens (Human), UniProt Q9NZQ7); test: PD-L1/PD-L1 dimerization biochemical protein-protein interaction assay (ALPHA); assay type: binding; conditions: 0.5 nM His tagged PD-L1 and 0.5 nM FLAG tagged PD-L1, Table 4B, read-out: AC50 PDL1 Dimer 1 nM
Sequence of PD-L1 (Q9NZQ7 19-238): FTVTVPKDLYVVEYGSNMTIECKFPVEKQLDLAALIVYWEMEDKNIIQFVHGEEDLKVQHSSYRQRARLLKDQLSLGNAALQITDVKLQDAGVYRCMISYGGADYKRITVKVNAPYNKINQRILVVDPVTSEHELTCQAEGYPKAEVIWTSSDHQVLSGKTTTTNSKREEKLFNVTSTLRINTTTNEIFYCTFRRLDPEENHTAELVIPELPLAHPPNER
Sequence of PD-L1 (Q9NZQ7 19-238): as above

Sequence of PD-1/PD-L1 (Q9NZQ7 19-238): as above

Row | Structure (SMILES) | IC50 (PD-1/PD-L1) [nM] | AC50 (PD-L1) [nM]
1 | COc1nc(-c2cccc(-c3cccc4c3CC[C@@H]4Oc3nc(OC)c(CN4CC5CCCC4(C(=O)O)C5)cc3Cl)c2Cl)ccc1CNC[C@@H]1CCC(=O)N1 (some centres unmarked) [B-181] | 0.064 | 18.9
2 | COc1nc(-c2cccc(-c3cccc4c3CC[C@@H]4Oc3nc(OC)c(CN4C[C@H]5[C@@H]([C@H]4C(=O)O)C5(C)C)cc3Cl)c2Cl)ccc1CNC[C@@H]1CCC(=O)N1 [B-182] | 0.064 | 31.1
3 | COc1nc(-c2cccc(-c3cccc4c3CC[C@@H]4Oc3nc(OC)c(CN4CCC(C)(C)[C@H]4C(=O)O)cc3Cl)c2Cl)ccc1CNC[C@@H]1CCC(=O)N1 [B-183] | 0.064 | 25.1
4 | COc1nc(-c2cccc(-c3cccc4c3CC[C@@H]4Oc3nc(OC)c(CN4CC5CC(C(=O)O)C4C5)cc3Cl)c2Cl)ccc1CNC[C@@H]1CCC(=O)N1 (some centres unmarked) [B-184] | 0.064 | 19.8
5 | COc1nc(-c2cccc(-c3cccc4c3CC[C@@H]4Oc3nc(OC)c(CN4C[C@H](C)C[C@H]4C(=O)O)cc3Cl)c2Cl)ccc1CNC[C@@H]1CCC(=O)N1 [B-185] | 0.064 | 10.9
6 | CCC1C(C(=O)O)CCN1Cc1cc(Cl)c(O[C@H]2CCc3c(-c4cccc(-c5ccc(CNC[C@@H]6CCC(=O)N6)c(OC)n5)c4Cl)cccc32)nc1OC (some centres unmarked) [B-186] | 0.064 | 19.7
7 | COc1cc(-c2cccc(-c3cccc4c3CC[C@@H]4Oc3nc(OC)c(CN(C)CC(=O)O)cc3C(F)(F)F)c2Cl)cc(F)c1CNC[C@@H]1CCC(=O)N1 [B-187] | 0.064 | 2.86
8 | COc1nc(O[C@H]2CCc3c(-c4cccc(-c5cc(F)c(CNC[C@@H]6CCC(=O)N6)c(OC)n5)c4Cl)cccc32)c(C(F)(F)F)cc1CN1CC[C@H](C(=O)O)C1 [B-188] | 0.064 | 12
9 | COc1nc(O[C@H]2CCc3c(-c4cccc(-c5cc(F)c(CNC[C@@H]6CCC(=O)N6)c(OC)n5)c4Cl)cccc32)c(C(F)(F)F)cc1CNC1(C(=O)O)CC1 [B-189] | 0.064 | 9.85
10 | COc1nc(O[C@H]2CCc3c(-c4cccc(-c5cc(F)c(CNC[C@@H]6CCC(=O)N6)c(OC)n5)c4Cl)cccc32)c(C(F)(F)F)cc1CN1CC2(C(=O)O)CCC1CC2 [B-190] | 0.064 | 8.98
11 | COc1nc(O[C@H]2CCc3c(-c4cccc(-c5cc(F)c(CNC[C@@H]6CCC(=O)N6)c(OC)n5)c4Cl)cccc32)c(C(F)(F)F)cc1CN1CC[C@@H](C(=O)O)C1 [B-191] | 0.064 | 12.3
12 | COc1cc(-c2cccc(-c3cccc4c3CC[C@@H]4Oc3nc(OC)c(CNC(C)(C)CC(=O)O)cc3C(F)(F)F)c2Cl)cc(F)c1CNC[C@@H]1CCC(=O)N1 [B-192] | 0.064 | 6.8
13 | COc1cc(-c2cccc(-c3cccc4c3CC[C@@H]4Oc3nc(OC)c(CNC4(C(=O)O)CC4)cc3C(F)(F)F)c2Cl)cc(F)c1CNC[C@@H]1CCC(=O)N1 [B-193] | 0.064 | 3.76
14 | COc1cc(-c2cccc(-c3cccc4c3CC[C@@H]4Oc3nc(OC)c(CN4CC5(C(=O)O)CCC4CC5)cc3C(F)(F)F)c2Cl)cc(F)c1CNC[C@@H]1CCC(=O)N1 [B-194] | 0.064 | 4.54
15 | COc1cc(-c2cccc(-c3cccc4c3CC[C@@H]4Oc3nc(OC)c(CN4CC[C@@H](C(=O)O)C4)cc3C(F)(F)F)c2Cl)cc(F)c1CNC[C@@H]1CCC(=O)N1 [B-195] | 0.064 | 5.79
16 | COc1nc(-c2cccc(-c3cccc4c3CC[C@@H]4Oc3nc(OC)c(CNC(C)(C)CC(=O)O)cc3C(F)(F)F)c2Cl)ccc1CNC[C@@H]1CCC(=O)N1 [B-196] | 0.064 | 6.31
17 | COc1nc(-c2cccc(-c3cccc4c3CC[C@@H]4Oc3nc(OC)c(CNC(C)(C)CC(=O)O)cc3Cl)c2Cl)ccc1CNC[C@@H]1CCC(=O)N1 [B-197] | 0.064 | 12.5
18 | COc1nc(-c2cccc(-c3cccc4c3CC[C@@H]4Oc3nc(OC)c(CN4C[C@H]5C[C@@]5(C(=O)O)C4)cc3C(F)(F)F)c2Cl)ccc1CNC[C@@H]1CCC(=O)N1 [B-198] | 0.064 | 15.3
19 | COc1nc(-c2cccc(-c3cccc4c3CC[C@@H]4Oc3nc(OC)c(CN4C[C@@H]5C[C@]5(C(=O)O)C4)cc3C(F)(F)F)c2Cl)ccc1CNC[C@@H]1CCC(=O)N1 [B-199] | 0.064 | 17.5
20 | COc1nc(-c2cccc(-c3cccc4c3CC[C@@H]4Oc3nc(OC4CC4)c(CN4CC[C@@H](C(=O)O)C4)cc3Cl)c2Cl)ccc1CNC[C@@H]1CCC(=O)N1 [B-200] | 0.064 | 20.1

Row | Structure (SMILES) | IC50 (PD-1/PD-L1) [nM] | AC50 (PD-L1) [nM]
21 | COc1nc(-c2cccc(-c3cccc4c3CC[C@@H]4Oc3nc(OC4CC4)c(CNC4(C(=O)O)CC4)cc3Cl)c2Cl)ccc1CNC[C@@H]1CCC(=O)N1 [B-201] | 0.064 | 24.4
22 | COc1nc(-c2cccc(-c3cccc4c3CC[C@@H]4Oc3nc(OC)c(CN4CC[C@@](C)(C(=O)O)C4)cc3C(F)(F)F)c2Cl)ccc1CNC[C@@H]1CC(O)C(=O)N1 (some centres unmarked) [B-202] | 0.064 | 3.43
23 | COc1nc(-c2cccc(-c3cccc4c3CC[C@@H]4Oc3nc(OC)c(CN4CC5(C(=O)O)CCC4CC5)cc3C(F)(F)F)c2Cl)ccc1CNC[C@@H]1CC(O)C(=O)N1 (some centres unmarked) [B-203] | 0.064 | 5.21
24 | COc1nc(-c2cccc(-c3cccc4c3CC[C@@H]4Oc3nc(OC)c(CNC4(C(=O)O)CC4)cc3C(F)(F)F)c2Cl)ccc1CNC[C@@H]1CC(O)C(=O)N1 (some centres unmarked) [B-204] | 0.064 | 9.7
25 | COc1nc(-c2cccc(-c3cccc4c3CC[C@@H]4Oc3nc(OC)c(CNCC(=O)O)cc3C(F)(F)F)c2Cl)ccc1CN[C@]1(C)C[C@@](C)(O)C1 [B-205] | 0.064 | 7.55
26 | COc1nc(-c2cccc(-c3cccc4c3CC[C@@H]4Oc3nc(OC)c(CNCC(=O)O)cc3C(F)(F)F)c2Cl)ccc1CNC[C@H]1C[C@](C)(O)C1 [B-206] | 0.064 | 7.77
27 | COc1nc(-c2cccc(-c3cccc4c3CC[C@@H]4Oc3nc(OC)c(CNC4(C(=O)O)CC4)cc3C(F)(F)F)c2Cl)ccc1CNC[C@H]1C[C@](C)(O)C1 [B-207] | 0.064 | 11.9
28 | COc1nc(-c2cccc(-c3cccc4c3CC[C@@H]4Oc3nc(OC)c(CN4CC[C@@](C)(C(=O)O)C4)cc3C(F)(F)F)c2Cl)ccc1CNC[C@H]1C[C@](C)(O)C1 [B-208] | 0.064 | 23.5
29 | COc1nc(-c2cccc(-c3cccc4c3CC[C@@H]4Oc3nc(OC)c(CN4CC5(C(=O)O)CCC4CC5)cc3C(F)(F)F)c2Cl)ccc1CNC[C@H]1C[C@](C)(O)C1 [B-209] | 0.064 | 11.7
30 | COc1nc(-c2cccc(-c3cccc4c3CC[C@@H]4Oc3nc(OC)c(CN(C)CC(=O)O)cc3C(F)(F)F)c2Cl)ccc1CN[C@H]1C[C@](C)(O)C1 [B-210] | 0.064 | 23.7
31 | CC[C@H](NCc1cc(C(F)(F)F)c(O[C@H]2CCc3c(-c4cccc(-c5ccc(CN[C@H]6C[C@](C)(O)C6)c(OC)n5)c4Cl)cccc32)nc1OC)C(=O)O [B-211] | 0.064 | 9.21
32 | COc1nc(-c2cccc(-c3cccc4c3CC[C@@H]4Oc3nc(OC)c(CN[C@H](C(=O)O)C(C)C)cc3C(F)(F)F)c2Cl)ccc1CN[C@H]1C[C@](C)(O)C1 [B-212] | 0.064 | 17.5
33 | COc1nc(-c2cccc(-c3cccc4c3CC[C@@H]4Oc3nc(OC)c(CN4CC[C@@](C)(C(=O)O)C4)cc3C(F)(F)F)c2Cl)ccc1CN[C@H]1C[C@](C)(O)C1 [B-213] | 0.064 | 17
34 | COc1nc(-c2cccc(-c3cccc4c3CC[C@@H]4Oc3nc(OC)c(CN[C@@H](C)C(=O)O)cc3C(F)(F)F)c2Cl)ccc1CN[C@H]1C[C@](C)(O)C1 [B-215] | 0.064 | 8.42
35 | COc1nc(-c2cccc(-c3cc(F)cc4c3CC[C@@H]4Oc3nc(OC)c(CN4CC5(C(=O)O)CCC4CC5)cc3C(F)(F)F)c2Cl)ccc1CNC[C@@H]1CCC(=O)N1 [B-216] | 0.064 | 20.1
36 | COc1nc(-c2cccc(-c3cc(F)cc4c3CC[C@@H]4Oc3nc(OC)c(CN4CC[C@@H](C(=O)O)C4)cc3C(F)(F)F)c2Cl)ccc1CNC[C@@H]1CCC(=O)N1 [B-217] | 0.064 | 28.9
37 | COc1cc(O[C@H]2CCc3c(-c4cccc(-c5ccc(CNC[C@@H]6CCC(=O)N6)c(OC)n5)c4Cl)cccc32)c(C(F)(F)F)cc1CN1CC[C@@](C)(C(=O)O)C1 [B-218] | 0.064 | 17.3
38 | COc1cc(O[C@H]2CCc3c(-c4cccc(-c5ccc(CNC[C@@H]6CCC(=O)N6)c(OC)n5)c4Cl)cccc32)c(C(F)(F)F)cc1CNC(C)(C)C(=O)O [B-219] | 0.064 | 2.56
39 | COc1cc(O[C@H]2CCc3c(-c4cccc(-c5ccc(CNC[C@@H]6CCC(=O)N6)c(OC)n5)c4Cl)cccc32)c(C(F)(F)F)cc1CNC1(C(=O)O)CC1 [B-220] | 0.064 | 2.04
40 | COc1cc(O[C@H]2CCc3c(-c4cccc(-c5ccc(CNC[C@@H]6CCC(=O)N6)c(OC)n5)c4Cl)cccc32)c(C(F)(F)F)cc1CNCC(C)(C)C(=O)O [B-221] | 0.064 | 17.5
